For assay [1], the system named is phosphorylation of Src, Syk, PLCγ2, and Akt. Description: Western blot: phosphorylation of GPVI downstream proteins in collagen-stimulated platelets. The conditions noted are these: washed platelets, Cath-HG 5, 10, 20 μM 5 min, n = 3, or dasatinib (Src inhibitor). The format is cell-based, mice. As for the experimental part: The platelets were lysed with radioimmunoprecipitation assay buffer containing protease inhibitor and phosphatase inhibitor cocktails, and the protein concentration was determined with a bicinchoninic acid protein assay kit before SDS-polyacrylamide gel electrophoresis separation and polyvinylidene difluoride (PVDF) membrane transferring. The membranes were incubated with corresponding primary antibodies overnight at 4 °C and appropriate horseradish peroxidase-conjugated secondary antibodies at room temperature for 1 h after being blocked with 5% skimmed milk at room temperature for 1 h. Finally, the results were recorded using a FluorChem R chemiluminescence imaging system (ProteinSimple, CA, USA) and analyzed using ImageJ software.
For orientation: In western blotting, separated proteins are transferred to a membrane and probed.

The test system of the next assay is FeCl3-injured mice. Description: FeCl3-induced carotid artery thrombosis model. The format is in vivo, Male BALB/c mice. The conditions noted are these: FeCl3 10% (w/v), i.v. 30 min before injury, Cath-HG 5 mg/kg or heparin 1,000 U/kg. The protocol:
The carotid artery thrombus experiment was carried out as described by Zhang et al. […] Anesthesia was induced with 2.0% isoflurane before the left carotid artery was exposed through a midline neck incision. A small piece of filter paper (2 mm × 1 mm) saturated with 10% (w/v) FeCl3 solution was placed on the carotid artery for 5 min to induce thrombus formation. The filter paper was then removed, and the artery was washed with saline. The carotid blood flow and occlusion time were measured to evaluate thrombus formation with the RFLSI Pro+ laser speckle blood flow imaging system (RWD, Shenzhen, China).

Assay [2] addresses platelet glycoprotein VI (mouse (endogenous in mouse platelets)) (UniProt P0C191).
Sequence of UniProt P0C191 (P0C191 22-313): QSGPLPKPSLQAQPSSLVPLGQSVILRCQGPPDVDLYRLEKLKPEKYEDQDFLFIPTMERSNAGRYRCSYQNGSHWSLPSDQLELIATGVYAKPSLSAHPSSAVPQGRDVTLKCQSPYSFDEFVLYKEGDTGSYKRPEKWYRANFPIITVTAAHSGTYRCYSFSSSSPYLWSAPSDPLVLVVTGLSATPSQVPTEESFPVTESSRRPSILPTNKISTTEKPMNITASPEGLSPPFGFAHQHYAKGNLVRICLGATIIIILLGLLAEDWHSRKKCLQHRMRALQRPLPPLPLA
Assay [3] concerns CLP septic mice. Nature of the assay: Bacterial loads in organs of CLP mice. The class given is in vivo, Male BALB/c mice. The conditions noted are these: heart, liver, spleen, lung, kidney; 24 h after CLP; i.p. Cath-HG 1.25, 2.5, 5 mg/kg or clopidogrel 20 mg/kg. The protocol: (§1) CLP-induced sepsis was performed based on our previous method with minor modifications. Briefly, under sterile conditions, the cecum of anesthetized mice was exposed and tightly ligated approximately 1 cm from the end. Then, the cecum was punctured twice at different mid-points with a 22-gauge needle, gently squeezed to extrude a small amount of fecal matter, returned into the peritoneal cavity which was sutured. Finally, the mice underwent resuscitation through the administration of 1 ml of preheated physiological saline via subcutaneous injection. […] Clopidogrel (20 mg/kg) was administered as a positive control, and blank control mice underwent sham surgery and received saline. All mice were monitored for 72 h after the induction of CLP. Another group of mice underwent the same procedure described above. Twenty-four hours after the surgery, the mice were euthanized, and blood, heart, liver, spleen, lung, and kidney samples were collected for subsequent analysis.

Assay [4] relates to CLP septic mice. Description: Microvascular thrombosis by fluorescent bead imaging in CLP mice. The conditions noted are these: lungs, liver, kidneys; i.p. 2 h after CLP; Cath-HG 1.25, 2.5, 5 mg/kg or clopidogrel 20 mg/kg. The format is in vivo, Male BALB/c mice. As for the experimental part: as §1
Assay [5] has as its system lactate dehydrogenase (LDH). Description: Serum LDH activity in CLP mice. The format is in vivo, Male BALB/c mice. The conditions noted are these: i.p. 2 h after CLP; Cath-HG 1.25, 2.5, 5 mg/kg or clopidogrel 20 mg/kg; n = 4. As for the experimental part:
as §1
For platelet count determination, blood was collected in EDTA and analyzed using a PE-6800 Fully Auto Hematology Analyzer (Prokan, Shenzhen, China). […] TPO levels were determined by ELISA, and LDH activity was measured using an LDH assay kit.

The source of these data is publication PMC11151873, “Cathelicidin-HG Alleviates Sepsis-Induced Platelet Dysfunction by Inhibiting GPVI-Mediated Platelet Activation” (Research, 2024).

`Cc1nc(Nc2ncc(C(=O)Nc3c(C)cccc3Cl)s2)cc(N2CCN(CCO)CC2)n1` [dasatinib]: the “collagen-induced phosphorylation of GPVI downstream proteins (Src, Syk, PLCγ2, Akt)” value in assay [1] is “completely inhibited”.

For heparin, the carotid blood flow result in the assay with FeCl3-injured mice (laser speckle imaging) is “significantly increased blood flow”. Further, the “mean occlusion time of carotid artery” value in the assay on FeCl3-injured mice (n = 3, mean ± SD, control 2.9 ± 0.3 min) came out at 5.4 ± 0.3 min. In assay [2], Cathelicidin-HG (peptide) came in with an inhibition of platelet aggregation in platelet-rich plasma induced by the GPVI-specific agonist convulxin (0.6 nM); Cath-HG 5, 10 and 20 μM, value at 20 μM of 63.2%.

On to `COC(=O)[C@H](c1ccccc1Cl)N1CCc2sccc2C1` [clopidogrel], for which, in the assay with CLP septic mice [3], the “bacterial load in organs” value is on record as “reduced the bacterial burden in the organs of CLP mice”. Besides, the “microvascular thrombosis (fluorescence of beads)” value in the assay on CLP septic mice [4] was “reduced the fluorescence levels of lungs, liver, and kidneys”. Also, the “LDH activity in serum” value in assay [5] was “significantly decreased after Cath-HG or clopidogrel treatment”.
